Assay results from ChEMBL document CHEMBL1201862, “PubChem BioAssay data set” (2004).
Active and inactive are the calls of the source.

What was measured:
[1] = biological target: G-protein coupled receptor 55 (Homo sapiens, UniProt Q9Y2T6); assay: inhibition of LPI-stimulated GPR55 beta-arrestin translocation – imaging, U2OS, beta-arrestin-GFP, LPI agonist, primary screen (AID 2013); type: functional;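 also: antagonist potency measured as reduced agonist-driven arrestin aggregation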
Fatty acid synthase [2] = biological target: T1, Fatty acid synthase (Homo sapiens, UniProt P49327); assay: inhibition of human FAS-TE enzyme activity – biochemical, endpoint fluorescence intensity, uHTS hits, dose response (AID 624327); type: functional;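 also: fluorescence from hydrolysis of an O-methyl fluorescein acyl ester substrate by the enzyme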
Fatty acid synthase [3] = biological target: T1, Fatty acid synthase; assay: inhibition of human FAS-TE enzyme activity – biochemical, kinetic fluorescence intensity, dose response (AID 624326); type: functional;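 also: rate of fluorescence rise from hydrolysis of a fluorogenic O-methyl fluorescein ester substrate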
Bcl-2-related protein A1 = Bcl-2-related protein A1 (Mus musculus, UniProt Q07440); type: functional;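 also: confirmatory dose–response counterscreen on Bfl-1, used to check hits from a UBC13 polyubiquitin inhibitor campaign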
[4] = biological target: T2, Ubiquitin-conjugating enzyme E2 N (Homo sapiens, UniProt P61088); type: functional
T2 sequence (P61088 whole entry): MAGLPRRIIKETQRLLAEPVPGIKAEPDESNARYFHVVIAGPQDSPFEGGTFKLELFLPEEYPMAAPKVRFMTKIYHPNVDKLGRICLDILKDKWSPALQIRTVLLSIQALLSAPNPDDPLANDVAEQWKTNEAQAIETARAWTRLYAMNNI

[5] = biological target: T2, Ubiquitin-conjugating enzyme E2 N; type: functional; remark: listed apart in the source
Beta-galactosidase = Beta-galactosidase (Escherichia coli, UniProt Q8VNN2); assay: Dose response counterscreen for EBI2 assay utilizing the enzyme, b-galactosidase.; type: functional
[6] = biological target: Acyl-homoserine lactone acylase PvdQ (Pseudomonas aeruginosa (strain LESB58), UniProt Q9I194); assay: PvdQ acylase enzyme activity blockers – biochemical, fluorescence, plate reader and imaging, cherry-picks, dose response (AID 493231)
Interleukin-8 [7] = biological target: T3, Interleukin-8 (Homo sapiens, UniProt P10145); assay: Dose Response confirmation of uHTS small molecule hits for cystic fibrosis induced NFkb Inhibitors in a TNFa-induced IL8 counterscreen.; type: functional; conditions: read-out: IC50_Mean
T3 sequence (P10145 whole entry): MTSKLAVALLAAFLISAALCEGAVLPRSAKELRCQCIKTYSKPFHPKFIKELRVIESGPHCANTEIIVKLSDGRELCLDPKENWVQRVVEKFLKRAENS

Interleukin-8 [8] = biological target: T3, Interleukin-8; assay: Dose Response confirmation of uHTS small molecule hits for cystic fibrosis induced NFkb Inhibitors in a PAF-induced IL8 counterscreen.; type: functional; conditions: read-out: IC50_Mean
[9] = NIH-3T3 fibroblast cytotoxicity, dose response, cytotoxicity control, cell-based, fluorescence, Alamar Blue, secondary assay (AID 2327); type: functional;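 also: NIH-3T3 mouse fibroblasts cultured with fluconazole at 8 µg/mL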
[10] = fluconazole-exposed Candida albicans growth modulators – fluorescence, retest, confirmation (AID 2467); type: functional, cell-based
[11] = biological target: T4, Serine/threonine-protein phosphatase (Candida dubliniensis (strain CD36 / CBS 7987 / NCPF 3949 / NRRLY-17841) (Yeast), UniProt B9W6M3); assay: blockers of CaCl2-induced CDRE-lacZ signaling – S. cerevisiae, luminescence, secondary, dose response (AID 2388); type: functional, cell-based;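 also: yeast reporter cells carrying a calcineurin-responsive lacZ construct stimulated with calcium chloride; luminescent beta-galactosidase reporter signal in whole cells rather than isolated phosphatase activity; potency for inhibition where a drop in reporter signal means calcineurin blockade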
T4 sequence (B9W6M3 whole entry): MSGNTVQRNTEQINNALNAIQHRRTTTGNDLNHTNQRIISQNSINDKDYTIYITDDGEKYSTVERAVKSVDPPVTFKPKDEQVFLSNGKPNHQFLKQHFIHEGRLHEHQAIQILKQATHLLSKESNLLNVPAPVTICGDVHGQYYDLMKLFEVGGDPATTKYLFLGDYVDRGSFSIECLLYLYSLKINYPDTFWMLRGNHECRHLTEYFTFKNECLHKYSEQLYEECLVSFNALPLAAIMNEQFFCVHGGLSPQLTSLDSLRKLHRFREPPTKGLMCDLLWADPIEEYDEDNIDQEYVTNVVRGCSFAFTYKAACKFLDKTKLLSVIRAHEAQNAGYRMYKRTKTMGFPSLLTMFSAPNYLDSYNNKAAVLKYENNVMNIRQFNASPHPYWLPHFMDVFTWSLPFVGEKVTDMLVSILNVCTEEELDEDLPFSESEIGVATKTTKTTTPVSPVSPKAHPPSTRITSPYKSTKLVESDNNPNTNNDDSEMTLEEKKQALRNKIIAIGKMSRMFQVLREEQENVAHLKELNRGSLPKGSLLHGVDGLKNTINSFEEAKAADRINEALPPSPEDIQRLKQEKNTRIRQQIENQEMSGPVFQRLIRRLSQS

[12] = antiviral protection against BTV-induced cell death – arbovirus, BSR cells, confirmation (AID 1250); type: functional;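 also: protection from viral cytopathic effect measured as cell viability by ATP luminescence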
[13] = biological target: ATP-dependent molecular chaperone HSP82 (Candida albicans (strain WO-1) (Yeast), UniProt C4YTQ8); assay: steroid-induced GRE reporter decrease in yeast – S. cerevisiae, luminescence, Hsp90 inhibitor project, dose response (AID 2400); type: functional, cell-based;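 also: beta-galactosidase luminescence from glucocorticoid response element reporter as proxy for Hsp90 function; inhibitor potency where signal loss means Hsp90 inhibition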
[14] = biological target: Cystic fibrosis transmembrane conductance regulator/Golgi-associated PDZ and coiled-coil motif-containing protein (Homo sapiens, UniProt P13569+Q9HD26); assay: potency against CAL PDZ-peptide interaction – biochemical, fluorescence polarization, Cerulean-tagged CAL PDZ, cherry-picks, dose response (AID 504773)
Nonstructural protein 1 = Nonstructural protein 1 (Influenza A virus, UniProt Q194T2); type: functional, Influenza A virus (A/California/07/2009(H1N1))
[15] = biological target: Heat shock protein HSP 90-alpha (Homo sapiens, UniProt P07900); type: functional, organism-based
[16] = HGIII-sPLA2 enzyme inhibition potency – biochemical, QFRET, IC50, dose response (AID 743457);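 also: green fluorescence rise as the enzyme cleaves BODIPY PC-A2 in liposomes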
Mu-type opioid receptor = Mu-type opioid receptor (Homo sapiens, UniProt P35372); assay: SAR Analysis of Antagonists of the MOR Receptor using an Image-Based Assay - Set 3. [Related pubchem assays (depositor defined):AID1777, AID1785, AID1786, AID1966, AID2133, AID2136, AID2284, AID2285, AID2420]; type: functional
[17] = biological target: Delta-type opioid receptor (Homo sapiens, UniProt P41143); assay: SAR Analysis of Antagonists of the DOR Receptor using an Image-Based Assay - Set 3. [Related pubchem assays (depositor defined):AID1777, AID1785]; type: functional;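 also: U2OS cells expressing DOR1 and beta-arrestin GFP stimulated with 100 nM SNC80; imaging of GFP-tagged beta-arrestin moving into spots after receptor activation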
[18] = biological target: T5, Kappa-type opioid receptor (Homo sapiens, UniProt P41145); assay: SAR analysis of small molecule antagonists of the kappa opioid receptor via a luminescent beta-arrestin assay - Set 3. [Related pubchem assays (depositor defined):AID1777, AID1778, AID1785, AID1786, AID1966, AID2133, AID2136, AID2285, AID2495]; type: functional
[19] = biological target: T5, Kappa-type opioid receptor; assay: SAR analysis of Antagonists of the Kappa Opioid Receptor (KOR) using an Image-Based Assay - Set 3. [Related pubchem assays (depositor defined):AID1777, AID1785]; type: functional
Hexokinase = Hexokinase (Trypanosoma brucei, UniProt Q38C41); assay: Confirmation assay for inhibitors of Trypanosoma brucei hexokinase 1-Analogue-first series. [Related pubchem assays (depositor defined):AID1430, AID1632, AID2516, AID2560, AID2579, AID2600, AID449725, AID492951]; type: functional
[20] = biological target: Melanin-concentrating hormone receptor 1 (Homo sapiens, UniProt Q99705); assay: Late-stage fluorescence-based counterscreen for antagonists of the G-protein coupled receptor 7 (GPR7): cell-based dose response assay to identify antagonists of the melanin-concentrating hormone receptor 1 (MCHR1). [Related pubchem assays (depositor defined):AID1861, AID1880, AID1952, AID2148, AID2251, AID2257, AID485339]; type: functional;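 also: stimulated with 30 nM MCH peptide agonist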
Melanin-concentrating hormone receptor 1, sequence (Q99705 whole entry): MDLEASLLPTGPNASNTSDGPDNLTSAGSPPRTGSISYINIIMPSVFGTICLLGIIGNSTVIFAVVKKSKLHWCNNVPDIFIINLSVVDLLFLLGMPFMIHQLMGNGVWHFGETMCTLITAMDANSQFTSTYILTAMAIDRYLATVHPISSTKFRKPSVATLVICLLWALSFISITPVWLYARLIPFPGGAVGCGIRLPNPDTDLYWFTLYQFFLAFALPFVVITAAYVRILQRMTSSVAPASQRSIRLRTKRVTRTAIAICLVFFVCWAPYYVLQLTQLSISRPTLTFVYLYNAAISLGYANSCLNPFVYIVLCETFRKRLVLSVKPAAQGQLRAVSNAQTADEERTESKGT

T5 sequence (P41145 whole entry): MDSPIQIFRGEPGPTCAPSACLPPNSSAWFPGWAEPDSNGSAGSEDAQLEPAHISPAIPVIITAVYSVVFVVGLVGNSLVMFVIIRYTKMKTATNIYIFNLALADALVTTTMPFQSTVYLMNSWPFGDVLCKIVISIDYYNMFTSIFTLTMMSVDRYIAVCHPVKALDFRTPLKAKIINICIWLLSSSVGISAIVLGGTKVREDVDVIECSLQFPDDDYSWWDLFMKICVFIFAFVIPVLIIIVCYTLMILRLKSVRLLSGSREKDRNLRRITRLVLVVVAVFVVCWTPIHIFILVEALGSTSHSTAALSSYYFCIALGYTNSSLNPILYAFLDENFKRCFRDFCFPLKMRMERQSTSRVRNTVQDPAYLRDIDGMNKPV
Acyl-homoserine lactone acylase PvdQ, sequence (Q9I194 24-193 limits assumed): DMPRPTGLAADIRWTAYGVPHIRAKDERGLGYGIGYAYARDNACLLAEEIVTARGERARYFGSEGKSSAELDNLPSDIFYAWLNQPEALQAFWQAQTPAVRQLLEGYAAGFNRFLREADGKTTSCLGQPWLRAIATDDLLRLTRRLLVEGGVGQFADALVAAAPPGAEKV
Acyl-homoserine lactone acylase PvdQ, sequence (Q9I194 217-762 limits assumed): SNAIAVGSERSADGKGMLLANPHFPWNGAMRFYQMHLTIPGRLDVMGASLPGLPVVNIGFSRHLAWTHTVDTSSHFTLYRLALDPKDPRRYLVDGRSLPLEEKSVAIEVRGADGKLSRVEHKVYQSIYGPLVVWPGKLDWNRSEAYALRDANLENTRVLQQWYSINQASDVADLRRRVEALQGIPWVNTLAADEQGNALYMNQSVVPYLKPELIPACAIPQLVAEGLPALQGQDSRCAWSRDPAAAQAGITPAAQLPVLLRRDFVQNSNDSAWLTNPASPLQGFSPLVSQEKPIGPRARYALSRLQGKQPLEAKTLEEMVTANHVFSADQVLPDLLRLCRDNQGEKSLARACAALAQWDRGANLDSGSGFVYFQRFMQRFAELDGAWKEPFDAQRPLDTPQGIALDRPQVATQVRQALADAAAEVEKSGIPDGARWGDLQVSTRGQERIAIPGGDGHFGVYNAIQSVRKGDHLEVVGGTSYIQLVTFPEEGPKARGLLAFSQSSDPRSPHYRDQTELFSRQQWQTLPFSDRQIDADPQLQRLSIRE
T1 sequence (P49327 whole entry): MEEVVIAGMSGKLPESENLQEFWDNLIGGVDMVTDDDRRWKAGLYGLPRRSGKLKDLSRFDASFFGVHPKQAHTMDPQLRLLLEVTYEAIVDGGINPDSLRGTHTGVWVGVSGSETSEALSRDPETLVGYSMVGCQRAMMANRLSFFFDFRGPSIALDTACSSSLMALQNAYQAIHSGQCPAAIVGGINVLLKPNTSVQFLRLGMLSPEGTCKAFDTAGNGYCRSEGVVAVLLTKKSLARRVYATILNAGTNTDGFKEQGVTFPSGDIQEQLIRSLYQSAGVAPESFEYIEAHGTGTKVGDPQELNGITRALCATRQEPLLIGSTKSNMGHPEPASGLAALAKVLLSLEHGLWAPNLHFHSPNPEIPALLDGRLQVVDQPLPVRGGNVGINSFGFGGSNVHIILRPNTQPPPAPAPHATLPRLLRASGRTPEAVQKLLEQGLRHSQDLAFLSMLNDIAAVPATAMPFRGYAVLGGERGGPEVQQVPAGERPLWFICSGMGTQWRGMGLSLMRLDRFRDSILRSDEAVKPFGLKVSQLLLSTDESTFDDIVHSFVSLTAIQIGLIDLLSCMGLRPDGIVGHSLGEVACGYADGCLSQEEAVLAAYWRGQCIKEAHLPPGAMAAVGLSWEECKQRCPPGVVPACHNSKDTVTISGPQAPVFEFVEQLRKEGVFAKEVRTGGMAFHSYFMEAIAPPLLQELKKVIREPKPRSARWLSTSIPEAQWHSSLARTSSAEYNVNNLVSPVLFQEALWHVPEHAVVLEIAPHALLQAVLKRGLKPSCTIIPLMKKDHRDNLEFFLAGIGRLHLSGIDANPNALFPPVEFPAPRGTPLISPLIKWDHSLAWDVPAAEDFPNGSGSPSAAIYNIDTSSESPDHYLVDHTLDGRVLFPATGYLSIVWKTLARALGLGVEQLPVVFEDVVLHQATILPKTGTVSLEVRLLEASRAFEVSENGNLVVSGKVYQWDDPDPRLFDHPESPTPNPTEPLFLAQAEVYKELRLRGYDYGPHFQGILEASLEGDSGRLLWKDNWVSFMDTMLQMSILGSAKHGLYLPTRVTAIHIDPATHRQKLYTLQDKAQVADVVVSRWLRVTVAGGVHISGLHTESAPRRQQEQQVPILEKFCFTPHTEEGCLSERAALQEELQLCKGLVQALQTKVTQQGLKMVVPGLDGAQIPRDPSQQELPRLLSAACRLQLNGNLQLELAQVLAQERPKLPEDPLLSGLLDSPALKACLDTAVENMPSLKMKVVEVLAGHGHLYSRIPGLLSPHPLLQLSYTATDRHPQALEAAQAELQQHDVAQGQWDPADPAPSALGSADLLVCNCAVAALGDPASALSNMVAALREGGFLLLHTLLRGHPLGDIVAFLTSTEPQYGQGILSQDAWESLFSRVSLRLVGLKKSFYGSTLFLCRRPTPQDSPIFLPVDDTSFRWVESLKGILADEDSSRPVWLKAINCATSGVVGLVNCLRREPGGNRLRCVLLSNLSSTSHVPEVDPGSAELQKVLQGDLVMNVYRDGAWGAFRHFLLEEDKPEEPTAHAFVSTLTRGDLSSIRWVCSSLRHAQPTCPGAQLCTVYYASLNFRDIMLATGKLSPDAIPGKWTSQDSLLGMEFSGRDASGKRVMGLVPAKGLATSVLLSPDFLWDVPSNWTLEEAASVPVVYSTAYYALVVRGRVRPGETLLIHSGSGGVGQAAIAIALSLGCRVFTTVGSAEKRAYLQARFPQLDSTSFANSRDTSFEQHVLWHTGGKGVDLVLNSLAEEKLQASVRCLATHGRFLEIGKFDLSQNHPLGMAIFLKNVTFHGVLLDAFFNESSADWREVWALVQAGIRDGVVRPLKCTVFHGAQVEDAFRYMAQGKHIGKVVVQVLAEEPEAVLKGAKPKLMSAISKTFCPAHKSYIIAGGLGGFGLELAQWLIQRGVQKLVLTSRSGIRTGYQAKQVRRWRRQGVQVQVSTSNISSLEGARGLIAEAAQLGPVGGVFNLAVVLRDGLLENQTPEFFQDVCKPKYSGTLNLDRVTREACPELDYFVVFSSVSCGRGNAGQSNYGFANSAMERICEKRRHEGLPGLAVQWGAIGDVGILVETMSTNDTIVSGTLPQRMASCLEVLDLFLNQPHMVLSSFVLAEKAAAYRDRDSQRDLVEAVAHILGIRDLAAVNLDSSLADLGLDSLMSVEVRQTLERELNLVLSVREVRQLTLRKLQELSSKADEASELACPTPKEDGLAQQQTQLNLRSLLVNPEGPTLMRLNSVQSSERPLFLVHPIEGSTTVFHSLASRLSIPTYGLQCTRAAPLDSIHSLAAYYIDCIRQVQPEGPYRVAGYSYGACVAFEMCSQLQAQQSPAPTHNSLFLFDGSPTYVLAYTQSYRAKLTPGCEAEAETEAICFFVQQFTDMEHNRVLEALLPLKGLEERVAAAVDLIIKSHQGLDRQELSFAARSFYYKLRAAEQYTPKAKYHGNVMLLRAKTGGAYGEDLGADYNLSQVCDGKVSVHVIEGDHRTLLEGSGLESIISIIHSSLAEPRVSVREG
Beta-galactosidase, sequence (Q8VNN2 whole entry): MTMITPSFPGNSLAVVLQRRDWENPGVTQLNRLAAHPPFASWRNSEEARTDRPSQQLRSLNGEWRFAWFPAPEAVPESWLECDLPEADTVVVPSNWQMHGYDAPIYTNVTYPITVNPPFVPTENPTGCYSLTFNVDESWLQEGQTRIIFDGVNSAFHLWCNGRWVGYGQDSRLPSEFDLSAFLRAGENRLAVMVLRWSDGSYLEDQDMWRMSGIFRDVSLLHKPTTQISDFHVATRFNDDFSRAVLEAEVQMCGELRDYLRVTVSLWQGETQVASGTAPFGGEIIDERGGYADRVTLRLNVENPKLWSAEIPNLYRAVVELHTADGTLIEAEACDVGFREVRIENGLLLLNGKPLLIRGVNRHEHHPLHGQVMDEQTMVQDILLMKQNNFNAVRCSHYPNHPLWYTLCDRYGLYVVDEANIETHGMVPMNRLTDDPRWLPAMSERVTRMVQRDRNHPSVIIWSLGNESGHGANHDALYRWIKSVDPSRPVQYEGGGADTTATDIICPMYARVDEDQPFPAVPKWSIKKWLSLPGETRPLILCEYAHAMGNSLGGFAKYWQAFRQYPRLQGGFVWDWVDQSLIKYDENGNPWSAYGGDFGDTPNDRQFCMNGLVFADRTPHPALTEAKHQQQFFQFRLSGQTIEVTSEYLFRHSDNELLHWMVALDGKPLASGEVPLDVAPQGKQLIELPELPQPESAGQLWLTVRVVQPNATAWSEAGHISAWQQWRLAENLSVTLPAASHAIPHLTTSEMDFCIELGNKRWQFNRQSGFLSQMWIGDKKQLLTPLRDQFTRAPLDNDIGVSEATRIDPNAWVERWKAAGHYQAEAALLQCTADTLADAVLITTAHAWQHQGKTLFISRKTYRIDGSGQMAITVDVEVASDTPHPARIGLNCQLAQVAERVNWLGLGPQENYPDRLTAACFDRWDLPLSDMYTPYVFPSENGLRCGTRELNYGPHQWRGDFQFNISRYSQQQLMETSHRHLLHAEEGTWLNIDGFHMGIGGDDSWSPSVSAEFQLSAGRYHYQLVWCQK

CCS(=O)(=O)c1ccc(-c2csc(-c3ccc(Cl)cc3)n2)c(Cl)c1Cl
IC50 [1]: 5.51 µM (active)
IC50 (Fatty acid synthase [2]): 2.71 µM (active)
IC50 (Fatty acid synthase [3]): 1.86 µM (active)

Cc1ccc(N(C(=O)c2snc(C(N)=O)c2N)C(C(=O)NC2CCCC2)c2ccc(C)o2)cc1 (stereo unspecified)
IC50 (Bcl-2-related protein A1): > 20 µM (inactive)
IC50 [4]: 19.9 µM (active)
IC50 [5]: 10.4 µM (active)
IC50 (Beta-galactosidase): > 80 µM (inactive)

Cc1cc(NC(=O)c2c(F)c(F)c(F)c(F)c2F)no1
AC50 [6]: 1.24 µM (active)

CN(c1ncnc(N)c1[N+](=O)[O-])C1CCCCC1
AC50 [6]: 15.3 µM (active)
IC50 (Interleukin-8 [7]): 46.8 µM (inactive)
IC50 (Interleukin-8 [8]): 16.9 µM (inactive)

Cc1oc2ccc(OC(=O)N(C)C)cc2c1C(=O)OC(C)C
EC50 [9]: 137 µM (inconclusive)
EC50 [10]: 1.34 µM (active)
EC50 [11]: > 180 µM (inactive)
IC50 [12]: 35.1 µM (active)
EC50 [13]: > 160 µM (inactive)

CN(C)c1ccc(/C=c2\c3ccccc3n3c2cc(-c2ccccc2)[n+]3C)cc1
AC50 [14]: 94 µM (active)
IC50 (Nonstructural protein 1): 6.8 µM (active)
AC50 [15]: 4.19 µM (active)
IC50 [16]: 66.8 µM (inactive)

Cc1ccc(CN(CCNC(=O)c2ccc(CNS(=O)(=O)c3cccc(C)c3)cc2)C(C)C)cc1
IC50 (Mu-type opioid receptor): > 32 µM (inactive)
IC50 [17]: > 32 µM (inactive)
IC50 [18]: 1.83 µM (active)
IC50 [19]: 675 nM (active)

CN(C)c1ccc(C(=O)Nc2cc(Cl)ccc2C(=O)O)cc1
IC50 (Hexokinase): > 25 µM (inactive)

CC(C)c1ccc(-n2ncc(Cl)c(Oc3ccc(CO)cc3)c2=O)cc1
IC50 [20]: 3.7 µM (active)
